Measurements published in US11484608B2, “Non-invasive assessment of hepatic mitochondrial metabolism by positional isotopomer NMR tracer analysis (PINTA)” (YALE UNIVERSITY, priority 2017, dated 2022).

Test system: hepatic mitochondrial oxidation, NAFLD, glucose tolerance
Experiment: Chronic 10-day glucagon infusion in high fat fed rats
Assay type: in vivo, rat
Experimental: During week 3 of the diet, rats underwent surgery under isoflurane anesthesia to place catheters in the jugular vein and carotid artery, and recovery was confirmed by regaining the pre-surgical body weight prior to in vivo studies. […] Rats were fasted for 8 hr prior to sacrifice with IV pentobarbital.
In the rat studies, blood was collected from the jugular venous catheter. In both species, samples were immediately centrifuged (12,000 rpm) to separate plasma from red blood cells. PINTA analysis of hepatic mitochondrial fluxes was employed in both rats and mice (see Example 1). Briefly, mice were infused with a two-hour primed (5 min, 3×)-continuous infusion of [3-^13C] lactate (40 μmol kg^−1 min^−1) and [1,2,3,4,5,6,6-^2H7] glucose (0.1 mg kg^−1 min^−1). Rats were infused with lactate at the same rate, as well as [3-^3H] glucose (0.1 mCi kg^−1 min^−1). At the conclusion of the study, animals were euthanized with IV pentobarbital.
In the glucose tolerance tests, rodents were injected with 1 g kg^−1 50% dextrose (rats) or 10% dextrose (mice) intraperitoneally. Blood samples were taken through the venous catheter (rats) or by tail bleeding (mice) for measurement of plasma glucose and insulin concentrations as described below (Biochemical analysis).
Plasma glucose concentrations were measured using a YSI Glucose Analyzer. […] Plasma NEFA concentrations were measured using the Wako NEFA assay, while plasma glycerol and plasma and liver amino acid concentrations were measured by GC/MS. […] Protein concentrations were measured by Western blot, using antibodies from Santa Cruz (PC, PEPCK, CAMKII), Cell Signaling (ATGL, pCAMKIV, CAMKIV, pCRTC2, CRTC2, pACC, ACC, pAMPK, AMPK, pHSL, HSL, GAPDH, and β-actin), Novus Biologicals (pCAMKII), Abcam (pATGL), LSBio (pInsP3R-I), and BD Transduction Laboratories (InsP3R-II, InsP3R-III, PKCε). The antibody to pATGL was kindly provided by Dr. Hei Sook Sul, while the antibody to total InsP3R-I was custom-made using an epitope against the last 18 amino acids of InsP3R-I. Gluconeogenic gene mRNA expression was measured by qPCR^45 using primers sequences as follows: […]

[1] = HFD rats, two hours after withdrawal of glucagon infusion
[2] = intraperitoneal glucose tolerance test, HFD rats
[3] = rat liver, chronic glucagon infusion
[4] = rats, chronic glucagon infusion

glucagon
food intake, body weight, and hepatic ceramide content (HFD rats, chronic glucagon): similar
hepatic VPK flux (HFD rats, chronic glucagon): did not change
hepatic VPK flux as proportion of hepatic VPC flux (HFD rats, chronic glucagon): 15-20%
liver glycogen content (HFD rats, chronic glucagon): reductions
protein kinase C-epsilon (PKCε) translocation (HFD rats, chronic glucagon): marked reductions
reductions in hepatic triglyceride and diacylglycerol concentrations (HFD rats, chronic glucagon): 50-90%
hepatic acetyl- and malonyl-CoA content (HFD rats, glucagon withdrawn four hours before sacrifice): suppression
increase in rates of hepatic mitochondrial oxidation (HFD rats, ten days glucagon 5 ng kg^−1 min^−1): two-fold
reductions in fasting plasma glucose [1]: 1.4 mM
reductions in fasting plasma insulin concentrations [1]: 50%
reduction in glucose area under the curve [2]: 20%
reduction in insulin area under the curve [2]: 60%
Cytosolic DAG C16, C16 [3]: 1.8 ± 0.2 nmol/g
Cytosolic DAG C16, C18_2 [3]: 7.2 ± 1.0 nmol/g
Cytosolic DAG C16 C20_4 [3]: 0.5 ± 0.1 nmol/g
Cytosolic DAG C18, C16 [3]: 1.7 ± 0.1 nmol/g
Cytosolic DAG C18, C18 [3]: 5.6 ± 0.6 nmol/g
Cytosolic DAG C18 C20_4 [3]: 13.6 ± 1.1 nmol/g
Cytosolic DAG C18_1, C18 [3]: 0.6 ± 0.1 nmol/g
Cytosolic DAG C18_1, C18_1 [3]: 4.2 ± 0.5 nmol/g
Cytosolic DAG C18_1, C18_2 [3]: 4.0 ± 0.5 nmol/g
Cytosolic DAG C18_1 C16 [3]: 5.3 ± 0.9 nmol/g
Cytosolic DAG C18_2, C18 [3]: 0.9 ± 0.1 nmol/g
Cytosolic DAG C18_2, C18_2 [3]: 3.6 ± 0.6 nmol/g
Cytosolic DAG C20_4 C20_5 [3]: 0.5 ± 0.1 nmol/g
Cytosolic DAG Total DAG [3]: 38.3 ± 3.1 nmol/g
Membrane DAG C16, C16 [3]: 10.2 ± 2.6 nmol/g
Membrane DAG C16, C18_2 [3]: 97.3 ± 13.4 nmol/g
Membrane DAG C16 C20_4 [3]: 4.2 ± 0.7 nmol/g
Membrane DAG C18, C16 [3]: 4.9 ± 0.5 nmol/g
Membrane DAG C18, C18 [3]: 6.5 ± 0.5 nmol/g
Membrane DAG C18 C20_4 [3]: 21.5 ± 2.4 nmol/g
Membrane DAG C18_1, C18 [3]: 3.6 ± 0.4 nmol/g
Membrane DAG C18_1, C18_1 [3]: 44.1 ± 7.2 nmol/g
Membrane DAG C18_1, C18_2 [3]: 58.7 ± 7.8 nmol/g
Membrane DAG C18_1 C16 [3]: 50.0 ± 9.0 nmol/g
Membrane DAG C18_2, C18 [3]: 7.8 ± 0.7 nmol/g
Membrane DAG C18_2, C18_2 [3]: 44.0 ± 10.7 nmol/g
Membrane DAG Total DAG [3]: 364.0 ± 44.7 nmol/g
Ceramide C16 [4]: 40.1 ± 10.2 nmol/g
Ceramide C18 [4]: 7.1 ± 1.4 nmol/g
Ceramide C20 [4]: 15.9 ± 3.7 nmol/g
Ceramide C22 [4]: 26.9 ± 5.2 nmol/g
Ceramide C24 [4]: 52.8 ± 10.9 nmol/g
Ceramide C24:1 [4]: 15.2 ± 3.9 nmol/g
Total ceramide [4]: 158.0 ± 33.4 nmol/g
increases in hepatic mitochondrial fat oxidation (VFAO) (short-term continuous glucagon treatment): two-fold
